The results in this text go back to paper PMC10428205, “Cytotoxicity of Ruthenium(II) Arene Complexes Containing Functionalized Ferrocenyl β-Diketonate Ligands” (Organometallics, 2023).

A word on the IC50: it is the midpoint of a concentration-inhibition curve.

In assay [1] the test system is MIA PaCa-2. Type of assay: cell-based. Here is the method: (§1) LogP = Log ( [C]final ) Eqn1
(§2) 96 h Chemosensitivity Studies
(§3) In vitro chemosensitivity tests were performed at both the University of Huddersfield and the Institute of Cancer Therapeutics, Bradford, in a sterile Class II Biological Safety Cabinet fitted with a HEPA filtered laminar airflow.
Cellular assays were conducted against human pancreatic carcinoma (MIA PaCa-2), human colorectal carcinoma p53-wildtype (HCT116 p53+/+), and human non-cancerous epithelial retinal cells (ARPE-19). […]
were obtained from the American Type Culture Collection and provided by the University of Huddersfield. All cell lines were routinely maintained as monolayer cultures in appropriate complete medium and maintained in either […]
T-25 or T-75 flasks at 37 °C and 5% CO2.
10% foetal calf serum. All medium was supplemented with sodium pyruvate (1 mM) and L-glutamine (2 mM), and prior to chemosensitivity studies, cell monolayers were passaged using Trypsin-EDTA and diluted to a […]
cells/mL cell suspension was added to each well and incubated for 24 h at 37 °C and 5% CO2. After 24 h, 100 mL of drug dilutions (fresh 100 mM stock solutions in DMSO) in media were added to the plates and then incubated for a further 96 h at 37°C and 5% CO2 (48 h + 48 h recovery period were used for the shorter exposures with MIA PaCa-2 cells only). After 96 h, 20 mL MTT (3-(4,5-dimethylthiazol-2-yl)-2,5-diphenyltetrazolium bromide, 5 mg/mL) was added to each well and incubated for 3 h at 37 °C and 5% CO2. All solutions were then removed from the 96-well plates via pipette and […] of DMSO added to each well to dissolve the purple formazan […]
FC spectrophotometer microplate reader. Using the blank and 100% cell controls, the % cell viability was determined [(abs. of compound containing wells – abs. media wells)/(abs. 100% cell suspension well control)] and from this the % cell death (100%- % cell viability) was calculated. On a logarithmic scale, the percentage cell death was plotted against the concentration of compound, and from this the half maximal inhibitory concentration (IC50) value was determined. Each of the experiments were performed in triplicate with mean values being stated as the IC50 ± Standard Deviation (SD). […]

Assay [2] concerns MIA PaCa-2. The assay is described as follows: 24 and 48 h chemosensitivity (MTT, with recovery period). In kind it is cell-based, human. Here is the method:
as §1, §2, §3
Cellular assays were conducted against human pancreatic carcinoma (MIA PaCa-2), human colorectal carcinoma p53-wildtype (HCT116 p53+/+), and human non-cancerous epithelial retinal cells (ARPE-19). The ARPE-19 cells were obtained from the American Type Culture Collection and provided by the University of Huddersfield. All cell lines were routinely maintained as monolayer cultures in appropriate complete medium and maintained in either T-25 or T-75 flasks at 37 °C and 5% CO2. MIA PaCa-2 and ARPE-19 cells were cultured in high glucose DMEM-F12 medium containing 10% foetal calf serum, and HCT116 p53+/+ was cultured in RPMI 1640 supplemented with 10% foetal calf serum. All medium was supplemented with sodium pyruvate (1 mM) and L-glutamine (2 mM), and prior to chemosensitivity studies, cell monolayers were passaged using Trypsin-EDTA and diluted to a concentration of 1 x 10^4 cells/mL. All assays were conducted using 96-well plates, in which […] of the 1 x 10^4 cells/mL cell suspension was added to each well and incubated for 24 h at 37 °C and 5% CO2. After 24 h, 100 mL of drug dilutions (fresh 100 mM stock solutions in DMSO) in media were added to the plates and then incubated for a further 96 h at 37°C and 5% CO2 (48 h + 48 h recovery period were used for the shorter exposures with MIA PaCa-2 cells only). After 96 h, 20 mL MTT (3-(4,5-dimethylthiazol-2-yl)-2,5-diphenyltetrazolium bromide, 5 mg/mL) was added to each well and incubated for 3 h at 37 °C and 5% CO2. All solutions were then removed from the 96-well plates via pipette and […] of DMSO added to each well to dissolve the purple formazan crystals. After mixing well, the absorbance of each well was measured at 540 nm using a ThermoFisher Multiskan FC spectrophotometer microplate reader. Using the blank and 100% cell controls, the % cell viability was determined [(abs. of compound containing wells – abs. media wells)/(abs. 100% cell suspension well control)] and from this the % cell death (100%- % cell viability) was calculated. On a logarithmic scale, the percentage cell death was plotted against the concentration of compound, and from this the half maximal inhibitory concentration (IC50) value was determined. Each of the experiments were performed in triplicate with mean values being stated as the IC50 ± Standard Deviation (SD).
24 and 48 h Chemosensitivity Studies
The same experimental protocol described for the 96 h MTT assay was used, and the MIA PaCa-2 cells were incubated for either 24 or 48 h, with a 72 or 48 h recovery period respectively. […]
All assays were conducted in triplicate.

Where [3] appears, read: 96 h MTT, normoxic, ± SD, read-out: IC50 against MIA PaCa-2.
Where [4] appears, read: MIA PaCa-2, 24 h exposure + 72 h recovery, read-out: IC50 values ± SD, 24 h.
Setting [5] is: MIA PaCa-2, 48 h exposure + 48 h recovery, read-out: IC50 values ± SD, 48 h.

SMILES strings stand for the structures. Where two headings read alike, the source gives them in different places.

`[NH2][Pt]([NH2])([Cl])[Cl]` [CDDP, cisplatin, reference compound]: the “Selectivity index (SI), IC50 ARPE-19 / IC50 MIA PaCa-2” value with MIA PaCa-2 [1] (96 h, * = minimum value as at least one IC50 > 100) came out at 1.7. The 50% inhibitory concentration (IC50) in the assay with MIA PaCa-2 [1] (setting [3]) was 3.6 ± 0.7 µM; in the assay on MIA PaCa-2 [1] (MIA PaCa-2, 96 h, read-out: IC50 values ± SD (Table S14)) it was 3.6 ± 0.7 µM; in the assay on MIA PaCa-2 [2] (setting [4]) it was > 100 µM; with MIA PaCa-2 [2] (setting [5]), 76 ± 3 µM.

As to `CC(O)=CC(=O)[c-]1cccc1.[Fe+2].c1cc[cH-]c1` [Complex L1], the IC50 in the assay with MIA PaCa-2 [1] (setting [3]) turned out to be 59 ± 2 µM; with MIA PaCa-2 [2] (setting [4]), 76 ± 3 µM; with MIA PaCa-2 [2] (setting [5]) it was 61 ± 1 µM.

For `O=C(C=C(O)c1ccccc1)[c-]1cccc1.[Fe+2].c1cc[cH-]c1` [Complex L2], the IC50 in the assay with MIA PaCa-2 [1] (setting [3]) was 38.7 ± 0.8 µM; with MIA PaCa-2 [2] (setting [4]), > 100 µM; in the assay with MIA PaCa-2 [2] (setting [5]), 68 ± 3 µM.

As to `O=C(C=C(O)C(F)(F)F)[c-]1cccc1.[Fe+2].c1cc[cH-]c1` [Complex L7], the concentration for half-maximal inhibition (IC50) with MIA PaCa-2 [1] (setting [3]) was 17 ± 1 µM; in the assay with MIA PaCa-2 [2] (setting [4]) it was > 100 µM; with MIA PaCa-2 [2] (setting [5]), 20 ± 1 µM.
